Data set [1] can be described thus: Neurocytotoxicity (CCK-8 cytotoxicity test). It counts as cell-based. Conditions: human, SH-SY5Y cells. Here is the method:
HepG-2 and SH-SY5Y cells were prepared and placed in 10 cm dish and incubated at 37° C., 5% CO2 in a cell incubator; the cells were digested with trypsinize, resuspended and then counted. Based on a system of 100 μl/well, 8000 cells were transferred to a 96-well plate. The cells were incubated in a 37° C., 5% CO2 cell incubator for 24 hours; a gradient concentration system of compound I-1 (prepared in Example 2) was prepared, 2 times diluted, the system was 100 μl/well. The supernatant in the 96-well plate cell culture system on the first day was removed, and a fresh prepared drug concentration system was added to the corresponding culture plate wells culturing cells (set up duplicate wells). […] After completion of the culture, the supernatant was removed from the cell culture system of the 96-well plate, 100 μl of detection solution (medium containing 10% CCK-8) was add to each well, and incubated in a cell incubator at 37° C. and 5% CO2 for 1 hour, then taken it out and measured the absorbance at 450 nm with a microplate reader. Data were processed, cytotoxicity was calculated, and IC50 was calculated by GraphPad Prism. […]
A (dosing): absorbance of the well having cells, CCK-8 solution and drug solution
A (blank): absorbance of the well having medium and CCK-8 solution, without cells.
A (0 dosing): absorbance of the well having cells and CCK-8 solution, without drug solution […]
For orientation: Formazan colour is commonly taken as a measure of viable cells.

Data set [2] concerns formalin pain model in mice. Briefly: Formalin pain model in mice. It counts as in vivo, C57BL/6 mice. The text has this: 150 C57BL/6 mice (male, 9 weeks) were randomly divided into 15 groups with 10 mice for each group, and were used for the analgesic activity test of 3 compounds in the formalin pain model in mice: the compound I-1 group (compound I-1 prepared in Example 2, its hydrochloride was used in the experiment), the S-duloxetine group (its hydrochloride was used in the experiment) and the compound C1 group (compound C1 prepared in Comparative Example 1, its hydrochloride was used in the experiment), respectively. Before the start of the experiment, the mice were allowed to adapt to the experimental environment for 72 hours, during which there was no need to fast for food or water. The tested drugs were administrated by intraperitoneal injection, and the doses were as follows: • The compound I-1 group: blank Vehicle (blank normal saline control), 0.1 mg/kg, 0.5 mg/kg, 1 mg/kg, 5 mg/kg and 10 mg/kg; • The S-duloxetine group: blank Vehicle (blank normal saline control), 1 mg/kg, 5 mg/kg, 10 mg/kg and 20 mg/kg; • The Compound C1 group: blank Vehicle (blank normal saline control), 0.1 mg/kg, 0.5 mg/kg, 1 mg/kg, 5 mg/kg and 10 mg/kg.
After the administration, the mice were placed in a transparent, ventilated plexiglass cylinder, and 1 hour later, 20 μl of 4% formalin solution was injected into the left hind foot plantar of each group of mice with a micro-injector, and foot pain response in mice were recorded in real time with a miniature camera. The length of time of licking the left foot was used as an indicator of pain response, the licking time were observed and recorded during two periods of 0-10 min (phase I) and 10-60 min (phase II) respectively, for statistical analysis, and the half effective dose (ED50) of the 3 compounds were calculated: ED50 refers to the drug dose that reduces the licking time by half compared with the blank control group. The smaller the ED50 value is, the lower the effective analgesic dose of the compound is and the better its analgesic effect is.

Here are results for one compound from patent US12570643B2, “3-aryloxy-3-five-membered heteroaryl propylamine compound, and crystal form and use thereof” (Shanghai Leado Pharmatech Co. Ltd., priority 2019, dated 2026).

For orientation: IC50 means the concentration that gives 50% inhibition. In general, ED50 refers to the dose at which the effect has come halfway, by size or by number of responders.

The structures appear in SMILES notation.

In the case of `CNCC[C@@H](Oc1cccc2ccoc12)c1cccs1` [Compound I-1, (R)-3-(benzofuran-7-yloxy)-N-methyl-3-(thiophen-2-yl)propan-1-amine], in data set [1], the half-maximal inhibitory concentration (IC50) at 72 h is ~101 µM. Further, the 50% effective dose (ED50) in data set [2] (Mus musculus, ip, intraperitoneal, phase II (10-60 min), dose that halves licking time vs blank control, read-out: analgesic potency ED50 in phase II pain) is 0.26 mg/kg. The “ED50 times stronger than that of C1 compound” value in data set [2] (phase II pain, formalin model in mice) amounted to 8.5 times.
